Literature values as cited in US7300682B2, “Method of preparation and use of coconut water in mamalian tissue nourishment growth and healthy maintenance” (Sabinsa Corporation, priority 2000, dated 2007).

System: Abelmoschus esculetus L and Solanum gilo L
Conditions: 100 mg/L

## C=C1C[C@]23C[C@@]1(O)CC[C@H]2[C@@]12C=C[C@H](O)[C@@](C)(C(=O)O1)[C@H]2[C@@H]3C(=O)O [GA3, gibberelic acid]
  effect on plant height, yield, chlorophyll and vitamin contents: significantly effective
